The subject of assay [1] is S. aureus (QC strain 29213). Put plainly: standard CLSI reference method MIC (fast-AST MICs stated to be similar). It is filed as cell-based, Staphylococcus aureus. The protocol:
Microorganism detection is then performed visually.
S. aureus (QC strain 29213) was cultured under standard sterile conditions in Mueller-Hinton (MH) broth overnight at 37° C. with shaking.
The microplates, each well containing 100 μL, were inoculated with the prepared antimicrobial dilutions and incubated at 37° C. for 3 hours, 45 minutes for determination using the present invention (the “fast-AST” technique). The “fast-AST” microplates were removed from the shaking incubator after 3 hours, 45 minutes and centrifuged for 2.5 minutes at 2500×g in order to pellet. The MH broth was then aspirated and 100 μL of 25 mM PBS was added to each well of both microplates. Then, 10 µL of the chemical moiety (here, Europium-Cryptate formulation) was added to each well (to 20 ng/well) and 10 μL of 0.005% Glutaraldehyde (as the signaling agent) was added to each well. The two microplates were then shaken at 300 rpm for 30 minutes. After, both plates were centrifuged for 2.5 minutes at 2500×g to pellet. The solution was aspirated and a wash of 200 μL PBS-tween was added to each well, followed by a centrifugation to pellet. After aspiration of solution, a second identical wash of 200 μL PBS-tween occurred, followed by a final centrifugation to pellet. 200 μL PBS-tween was added to each well. The plate was then read using time resolved fluorescence on a BioTek H1 plate reader.

Assay [2] relates to Pseudomonas aeruginosa (ATCC strain 27853). Put plainly: standard overnight growth, OD600 control MIC determination. Type of assay: cell-based. Particulars: ATCC27853, overnight (>12 hours) incubation, FIG. 6. The protocol: (§1) Similarly, a culture of Pseudomonas aeruginosa (ATCC strain 27853) was grown using MH broth overnight at 37° C. with vigorous shaking. […] The data shown in FIG. 6 depicts from the 5 minute point after the start of incubation with detection solution. […] The MIC determined by both techniques is the same: 4 μg/ml.

For assay [3] the test system is unchanged. Put plainly: fast-AST MIC determination (HRP-conjugated anti-P. aeruginosa antibody signaling agent). It is filed as cell-based. Particulars: ATCC27853, 3.5 hours incubation, susceptible strain, FIG. 6, FIG. 7. On the procedure:
as §1
(§2) The MIC for the resistant P. aeruginosa strain, ATCC BAA-2108, was determined similarly. The same 96-well microplate was used for both strains, with 48 wells dedicated to each strain.

For assay [4], the system named is resistant P. aeruginosa strain, ATCC BAA-2108. Put plainly: fast-AST MIC determination, resistant strain. Type of assay: cell-based. Conditions: Pseudomonas aeruginosa, ATCCBAA2108, FIG. 7. On the procedure: as §1, §2
Assay [5] deals with clinical S. aureus strain. Put plainly: CLSI overnight method MIC. Conditions: Staphylococcus aureus.
The subject of assay [6] is clinical resistant E. coli ("Clinical"). In words: fast-AST with Europium-Cryptate/glutaraldehyde, clinical strain. Conditions: 3 hours 45 minutes incubation, FIG. 17, FIG. 21. Type of assay: cell-based, Escherichia coli. The protocol:
(§3) Both Escherichia coli (QC strain, ATCC 25922) and clinical resistant E. coli (“Clinical”) were cultured under standard sterile conditions in Mueller-Hinton (MH) broth overnight at 37° C. with shaking. The E. coli concentration from the overnight culture was then set to 5×10^5 CFU/ml using the McFarland standard technique for optical density readings at 600 nm. Concurrently, two sterile 96-well microplates were prepared with serial dilutions of a specified antimicrobial (see below) and a no-antimicrobial (saline) control, all in MH broth. The microplates, each well containing 200 μL, were inoculated with the prepared antimicrobial dilutions and incubated at 37° C. for 3 hours, 45 minutes for determination using the present invention (the “fast-AST” technique). The “fast-AST” microplates were removed from the shaking incubator after 3 hours, 45 minutes and centrifuged for 2.5 minutes at 2500 g in order to pellet. The MH broth was then aspirated and 100 μL of water was added to each well of both microplates. Then, 10 μL of the chemical moiety (here, Europium-Cryptate formulation) was added to each well (to 20 ng/well) and 10 μL of 5% Glutaraldehyde (as the signaling agent) was added to each well. The two microplates were then shaken at 300 rpm for 30 minutes. […] The plate was then read using time resolved fluorescence on a BioTek H1 plate reader.

Assay [7] concerns Escherichia coli (ATCC 11303). In words: fluorescent nanoparticle signaling agent assay (free signaling agents in filtrate). Type of assay: cell-based. On the procedure: (§4) Both Escherichia coli (ATCC 11303) and ampicillin-resistant E. coli (ATCC 39936) were cultured under standard sterile conditions in LB broth at 37° C. Concentrations were determined by measuring absorbance at 600 nm (McFarland), and a concentration of 5×10^5 CFU/ml was set by dilution. Ampicillin was then weighed into sterile water and added in appropriate concentrations to sterile 3 mL microfuge tubes. Bacteria and nanoparticles at a concentration of 8×10^8 nanoparticles/ml were both added to these ampicillin-coated sterile microfuge tubes. The tubes were then capped and placed at 37° C. for 1.5 hours with continuous shaking, after which they were opened and each was passed through a 0.2 μm filter. Next, 100 μL of each filtrate was added to a well of a 96-well plate and 150 μL of a development solution (5% tetramethylammonium hydroxide in ethanol) was added to each well. After 5 minutes the plate was read at 490 nm excitation/530 nm emission in a SpectraMax M2 microplate reader (Molecular Devices).
(§5) An assay for free signaling agents, which are not associated with intact bacteria, was performed after intact bacteria were removed by filtration through a 0.2 μm filter.

Assay [8] relates to ampicillin-resistant E. coli (ATCC 39936). The assay is described as above. Type of assay: cell-based, Escherichia coli. Particulars: 100 μg/ml ampicillin, 1.5 hours, 0.2 μm filtrate; FIG. 41. The protocol:
as §4, §5

Assay [9] concerns Escherichia coli (QC strain, ATCC 25922) and clinical resistant E. coli ("Clinical"). In words: fast-AST with Europium-Cryptate/glutaraldehyde, QC strain compared with clinical strain. Type of assay: cell-based. Conditions: 3 hours 45 minutes incubation, FIG. 16 to FIG. 23. On the procedure: as §3
Setting [10] is: standard CLSI reference method, fast-AST MICs similar, FIG. 24 to FIG. 26.

The values that follow come from patent US9834808B2, “Methods for rapid antibiotic susceptibility testing” (SeLux Diagnostics, Inc., priority 2016, dated 2017).

≈ marks a conversion by molar mass, not a printed value.

With Penicillin, the MIC (usually the lowest concentration found to suppress growth) in assay [1] (setting [10]) was in the range of 0.25 to 2 µg/mL.

Turning to `CC(C)(O/N=C(\C(=O)N[C@@H]1C(=O)N2C(C(=O)[O-])=C(C[n+]3ccccc3)CS[C@H]12)c1csc(N)n1)C(=O)O` [ceftazidime], the MIC in assay [2] and in [3] was 4 µg/mL (≈ 7.32 µM) each time.

Regarding `C[C@@H](O)[C@H]1C(=O)N2C(C(=O)O)=C(SCCN=CN)C[C@H]12` [imipenem], the MIC in [4] stood at 32 µg/mL (≈ 107 µM); in assay [3], 2 µg/mL (≈ 6.68 µM).

Take `CN[C@H](CC(C)C)C(=O)N[C@H]1C(=O)N[C@@H](CC(N)=O)C(=O)N[C@H]2C(=O)N[C@H]3C(=O)N[C@H](C(=O)N[C@H](C(=O)O)c4cc(O)cc(O)c4-c4cc3ccc4O)[C@H](O)c3ccc(c(Cl)c3)Oc3cc2cc(c3O[C@@H]2O[C@H](CO)[C@@H](O)[C@H](O)[C@H]2O[C@H]2C[C@](C)(N)[C@H](O)[C@H](C)O2)Oc2ccc(cc2Cl)[C@H]1O` [Vancomycin]: the MIC is 8 µg/mL (≈ 5.52 µM) in [5] and 0.5 to 2 µg/mL (≈ 0.345 to 1.38 µM) in assay [1] (Staphylococcus aureus).

Turning to `CC1(C)S[C@@H]2[C@H](NC(=O)[C@H](N)c3ccccc3)C(=O)N2[C@H]1C(=O)O` [ampicillin], in assay [6], the “susceptibility call of the clinical strain” value was “resistant”. Besides, the “fluorescent signal of free signaling agent” value in [7] (100 μg/ml ampicillin, 1.5 hours, 0.2 μm filtrate, FIG. 41) is reported as “significant increase in fluorescence”; in assay [8], “low fluorescent signals”. The MIC in assay [7] (Escherichia coli, ATCC11303, varying ampicillin concentrations, fluorescent nanoparticle assay, FIG. 42) was approximately 15 µg/mL (≈ 42.9 µM). In [9], the “MICs of QC strain compared with clinical resistant strain” value was “dissimilar MICs”.

Molecule Teicoplanin displayed an MIC in assay [1] (setting [10]) of 0.25 to 1 µg/mL.
